Data: patent US7163952B2, “Azole compound and medicinal use thereof” (Japan Tobacco Inc., priority 2001, dated 2007)

| Compound | melting point |
| --- | --- |
| CN(Cc1ccc(C(=O)O)cc1)c1nc(-c2ccc(N(C)C[C@H]3CC[C@H](c4ccccc4)CC3)cc2)cs1 [Example 213, trans-4-((N-methyl-N-(4-(4-(N-methyl-N-(4-phenylcyclohexylmethyl)amino)phenyl)-2-thiazolyl)amino)methyl)benzoic acid] | 191 to 193 °C |
| O=C(O)c1ccc(CN(CC2CCCCC2)c2nc(-c3nc4ccc(OCc5ccccc5)cc4o3)cs2)cc1 [Example 220, 4-((N-(4-(6-benzyloxy-2-benzooxazolyl)-2-thiazolyl)-N-cyclohexylmethylamino)methyl)benzoic acid] | 117 to 119 °C |
| O=C(O)c1ccc(CN(CC2CCCCC2)c2nc(-c3nc4ccc(OCCc5ccccc5)cc4o3)cs2)cc1 [Example 221, 4-((N-cyclohexylmethyl-N-(4-(6-phenethyloxy-2-benzooxazolyl)-2-thiazolyl)amino)methyl)benzoic acid] | 105 to 108 °C |
| CN(CCCCc1ccccc1)c1ccc(-c2csc(N(C)Cc3ccc(C(=O)O)cc3)n2)cc1 [Example 222, 4-((N-methyl-N-(4-(4-(N-methyl-N-(4-phenylbutyl)amino)phenyl)-2-thiazolyl)amino)methyl)benzoic acid] | 146 to 147 °C |
| CN(CCC1Cc2ccccc2C1)c1ccc(-c2csc(N(C)Cc3ccc(C(=O)O)cc3)n2)cc1 [Example 223, 4-((N-(4-(4-(N-(2-(2-indanyl)ethyl)-N-methylamino)phenyl)-2-thiazolyl)-N-methylamino)methyl)benzoic acid] | 174 to 176 °C |
| CN(CCc1ccc(Cl)c(Cl)c1)c1ccc(-c2csc(N(C)Cc3ccc(C(=O)O)cc3)n2)cc1 [Example 224, 4-((N-(4-(4-(N-(2-(3,4-dichlorophenyl)ethyl)-N-methylamino)phenyl)-2-thiazolyl)-N-methylamino)methyl)benzoic acid] | 151 to 152 °C |
| CN(CCCc1ccccc1)c1ccc(-c2csc(N(C)Cc3ccc(C(=O)O)cc3)n2)cc1 [Example 225, 4-((N-methyl-N-(4-(4-(N-methyl-N-(3-phenylpropyl)amino)phenyl)-2-thiazolyl)amino)methyl)benzoic acid] | 127 to 128 °C |
| Cc1nc(N(C)Cc2ccc(C3CCCCC3)cc2)sc1-c1csc(N(C)Cc2ccc(C(=O)O)cc2)n1 [Example 227, 4-((N-(2′-(N-(4-cyclohexylbenzyl)-N-methylamino)-4′-methyl-4,5′-bithiazolyl-2-yl)-N-methylamino)methyl)benzoic acid] | 172 to 173 °C |
| CN(Cc1ccc(C2CCCCC2)cc1)c1cc(-c2csc(N(C)Cc3ccc(C(=O)O)cc3)n2)cc(Cl)n1 [Example 228, 4-((N-(4-(2-chloro-6-(N-(4-cyclohexylbenzyl)-N-methylamino)-4-pyridyl)-2-thiazolyl)-N-methylamino)methyl)benzoic acid] | 155 to 157 °C |
| CN(Cc1ccc(C(=O)O)cc1)c1nc(-c2ccc3[nH]c(-c4ccc(C5CCCCC5)cc4)nc3c2)cs1 [Example 231, 4-((N-(4-(2-(4-cyclohexylphenyl)-1H-benzoimidazol-5-yl)-2-thiazolyl)-N-methylamino)methyl)benzoic acid] | 250 °C |
| CN(Cc1ccc(C(=O)O)cc1)c1nc(-c2cnc(N(C)Cc3ccc(C4CCCCC4)cc3)c(Cl)c2)cs1 [Example 232, 4-((N-(4-(5-chloro-6-(N-(4-cyclohexylbenzyl)-N-methylamino)-3-pyridyl)-2-thiazolyl)-N-methylamino)methyl)benzoic acid] | 144 to 145 °C |
| CN(Cc1ccc(C(F)(F)F)cc1)c1ccc(-c2csc(N(C)Cc3ccc(C(=O)O)cc3)n2)cc1 [Example 234, 4-((N-methyl-N-(4-(4-(N-methyl-N-(4-trifluoromethylbenzyl)amino)phenyl)-2-thiazolyl)amino)methyl)benzoic acid] | 180 to 181 °C |
| CN(CCc1ccc(C(C)(C)C)cc1)c1ccc(-c2csc(N(C)Cc3ccc(C(=O)O)cc3)n2)cc1 [Example 235, 4-((N-(4-(4-(N-(2-(4-tert-butylphenyl)ethyl)-N-methylamino)phenyl)-2-thiazolyl)-N-methylamino)methyl)benzoic acid] | 162 °C |
| CN(CCc1ccc(C(F)(F)F)cc1)c1ccc(-c2csc(N(C)Cc3ccc(C(=O)O)cc3)n2)cc1 [Example 236, 4-((N-methyl-N-(4-(4-(N-methyl-N-(2-(4-trifluoromethylphenyl)ethyl)amino)phenyl)-2-thiazolyl)amino)methyl)benzoic acid] | 158 to 159 °C |
| CN(C)c1ccc(CCN(C)c2ccc(-c3csc(N(C)Cc4ccc(C(=O)O)cc4)n3)cc2)cc1 [Example 237, 4-((N-(4-(4-(N-(2-(4-dimethylaminophenyl)ethyl)-N-methylamino)phenyl)-2-thiazolyl)-N-methylamino)methyl)benzoic acid] | 164 to 167 °C |
| CN(CCc1ccc(N2CCOCC2)cc1)c1ccc(-c2csc(N(C)Cc3ccc(C(=O)O)cc3)n2)cc1 [Example 238, 4-((N-methyl-N-(4-(4-(N-methyl-N-(2-(4-morpholinophenyl)ethyl)amino)phenyl)-2-thiazolyl)amino)methyl)benzoic acid] | 212 to 213 °C |
| CN(Cc1ccc(C(=O)O)cc1)c1nc(-c2ccc(CN3CCN(c4ccccc4)CC3)cc2)cs1 [Example 239, 4-((N-methyl-N-(4-(4-(4-phenyl-1-piperazinylmethyl)phenyl)-2-thiazolyl)amino)methyl)benzoic acid] | 159 to 163 °C |
| CN(Cc1ccc(C(=O)O)cc1)c1nc(-c2ccc(CN3CCN(Cc4ccccc4)CC3)cc2)cs1 [Example 240, 4-((N-(4-(4-(4-benzyl-1-piperazinylmethyl)phenyl)-2-thiazolyl)-N-methylamino)methyl)benzoic acid] | 130 to 135 °C |
| CN(Cc1ccc(C(=O)O)cc1)c1nc(-c2ccc(N(C)Cc3ccc(C4CCCCC4)cc3)c(Cl)c2)cs1 [Example 242, 4-((N-(4-(3-chloro-4-(N-(4-cyclohexylbenzyl)-N-methylamino)phenyl)-2-thiazolyl)-N-methylamino)methyl)benzoic acid] | 149 to 150 °C |
| CN(Cc1ccc(C(=O)O)cc1)c1nc(-c2ccc(CN3CCN(C(=O)OCc4ccccc4)CC3)cc2)cs1 [Example 243, benzyl 4-(4-(2-(N-(4-carboxybenzyl)-N-methylamino)-4-thiazolyl)benzyl)-piperazine-1-carboxylate] | 122 to 127 °C |

Other lines, results leading:

| melting point | Compound |
| --- | --- |
| 180 to 181 °C | CN(Cc1ccc([C@H]2CC[C@@H](O)CC2)cc1)c1ccc(-c2csc(N(C)Cc3ccc(C(=O)O)cc3)n2)cc1 [Example 194, cis-4-((N-(4-(4-(N-(4-(4-hydroxycyclohexyl)benzyl)-N-methylamino)phenyl)-2-thiazolyl)-N-methylamino)methyl)benzoic acid] |
| 183 °C (dec.) | CN(Cc1ccc(C2CCCCC2)cc1)c1ccc(-c2csc(N(C)Cc3cccc(C(=O)O)c3)n2)cc1 [Example 204, 3-((N-(4-(4-(N-(4-cyclohexylbenzyl)-N-methylamino)phenyl)-2-thiazolyl)-N-methylamino)methyl)benzoic acid] |
| 189 to 191 °C | CN(Cc1ccc(C2CCCC(=O)C2)cc1)c1ccc(-c2csc(N(C)Cc3ccc(C(=O)O)cc3)n2)cc1 (stereo not shown) [Example 207, 4-((N-methyl-N-(4-(4-(N-methyl-N-(4-(3-oxocyclohexyl)benzyl)amino)phenyl)-2-thiazolyl)amino)methyl)benzoic acid] |
| 225 to 227 °C | CN(Cc1ccc(C2CCOCC2)cc1)c1ccc(-c2csc(N(C)Cc3ccc(C(=O)O)cc3)n2)cc1 [Example 210, 4-((N-methyl-N-(4-(4-(N-methyl-N-(4-(tetrahydropyran-4-yl)benzyl)amino)phenyl)-2-thiazolyl)amino)methyl)benzoic acid] |
| 208 to 210 °C | CC(=O)N1CCC(c2ccc(CN(C)c3ccc(-c4csc(N(C)Cc5ccc(C(=O)O)cc5)n4)cc3)cc2)CC1 [Example 211, 4-((N-(4-(4-(N-(4-(1-acetylpiperidin-4-yl)benzyl)-N-methylamino)phenyl)-2-thiazolyl)-N-methylamino)methyl)benzoic acid] |
| 181 to 183 °C | CN(Cc1ccc(C2CCCC2)cc1)c1ccc(-c2csc(N(C)Cc3ccc(C(=O)O)cc3)n2)cc1 [Example 212, 4-((N-(4-(4-(N-(4-cyclopentylbenzyl)-N-methylamino)phenyl)-2-thiazolyl)-N-methylamino)methyl)benzoic acid] |
| 230 °C | CN(Cc1ccc(C2CCC(C)(C)CC2)cc1)c1ccc(-c2csc(N(C)Cc3ccc(C(=O)[O-])cc3)n2)cc1.[Na+] [Example 216, sodium 4-((N-(4-(4-(N-(4-(4,4-dimethylcyclohexyl)benzyl)-N-methylamino)phenyl)-2-thiazolyl)-N-methylamino)methyl)benzoate] |
| 157 to 159 °C | CN(Cc1ccc(C2CCCCC2)cc1)c1ccc(-c2csc(N(C)Cc3ccc(C(=O)O)cc3)n2)cn1 [Example 226, 4-((N-(4-(6-(N-(4-cyclohexylbenzyl)-N-methylamino)-3-pyridyl)-2-thiazolyl)-N-methylamino)methyl)benzoic acid] |
| 176 to 177 °C | CN(Cc1ccc(CC(C)(C)C)cc1)c1ccc(-c2csc(N(C)Cc3ccc(C(=O)O)cc3)n2)cc1 [Example 229, 4-((N-(4-(4-(N-(4-(2,2-dimethylpropyl)benzyl)-N-methylamino)phenyl)-2-thiazolyl)-N-methylamino)methyl)benzoic acid] |
| 166 to 167 °C | CN(Cc1ccc(C(C)(C)C)cc1)c1ccc(-c2csc(N(C)Cc3ccc(C(=O)O)cc3)n2)cc1 [Example 233, 4-((N-(4-(4-(N-(4-tert-butylbenzyl)-N-methylamino)phenyl)-2-thiazolyl)-N-methylamino)methyl)benzoic acid] |
| 147 to 148 °C | CCC(CC)c1ccc(CN(C)c2ccc(-c3csc(N(C)Cc4ccc(C(=O)O)cc4)n3)cc2)cc1 [Example 241, 4-((N-(4-(4-(N-(4-(1-ethylpropyl)benzyl)-N-methylamino)phenyl)-2-thiazolyl)-N-methylamino)methyl)benzoic acid] |
